Experimental data from ChEMBL document CHEMBL5505979, “Novel aminothiazoximone-corbelled ethoxycarbonylpyrimidones with antibiofilm activity to conquer Gram-negative bacteria through potential multitargeting effects” (Eur J Med Chem, 2024).
Values after ≈ are worked out from the molar mass of the structure shown.

What was measured:
Type in all cases: functional
[1] = test system: Staphylococcus aureus; test: Anti-bacterial activity against methicillin-resistant Staphylococcus aureus N315 assessed as inhibition of bacterial growth; conditions: Staphylococcus aureus, N315; read-out: MIC
[2] = test system: Staphylococcus aureus; test: Anti-bacterial activity against methicillin-resistant Staphylococcus aureus ATCC 43300 assessed as inhibition of bacterial growth; conditions: Staphylococcus aureus, ATCC 43300; read-out: MIC
[3] = test system: Enterococcus faecalis; test: Anti-bacterial activity against Enterococcus faecalis V583 assessed as inhibition of bacterial growth
[4] = test system: Klebsiella pneumoniae; test: Anti-bacterial activity against Klebsiella pneumoniae KPN325 assessed as inhibition of bacterial growth; conditions: Klebsiella pneumoniae, KPN325; read-out: MIC
[5] = test system: Staphylococcus aureus; test: Anti-bacterial activity against Staphylococcus aureus ATCC 1708 assessed as inhibition of bacterial growth; conditions: Staphylococcus aureus, ATCC 1708; read-out: MIC
[6] = test system: Staphylococcus aureus; test: Anti-bacterial activity against Staphylococcus aureus ATCC 25923 assessed as inhibition of bacterial growth; conditions: Staphylococcus aureus, ATCC 25923; read-out: MIC
[7] = test system: Staphylococcus aureus; test: Anti-bacterial activity against Staphylococcus aureus ATCC 29213 assessed as inhibition of bacterial growth; conditions: Staphylococcus aureus, ATCC 29213; read-out: MIC
[8] = test system: Staphylococcus aureus; test: Anti-bacterial activity against Staphylococcus aureus ATCC 12600 assessed as inhibition of bacterial growth; conditions: Staphylococcus aureus, ATCC 12600; read-out: MIC
[9] = test system: Staphylococcus aureus; test: Anti-bacterial activity against Staphylococcus aureus ATCC 6538 assessed as inhibition of bacterial growth
[10] = test system: Staphylococcus aureus; test: Anti-bacterial activity against Staphylococcus aureus CMCC (B) 26003 assessed as inhibition of bacterial growth
[11] = test system: Staphylococcus aureus; test: Anti-bacterial activity against Staphylococcus aureus CMCC (B) 26001 assessed as inhibition of bacterial growth
[12] = test system: Escherichia coli; test: Anti-bacterial activity against Escherichia coli JM109 assessed as inhibition of bacterial growth
[13] = test system: Escherichia coli; test: Anti-bacterial activity against Escherichia coli ATCC 25922 assessed as inhibition of bacterial growth
[14] = test system: Pseudomonas aeruginosa; test: Anti-bacterial activity against Pseudomonas aeruginosa ST235 assessed as inhibition of bacterial growth; conditions: Pseudomonas aeruginosa, ST235; read-out: MIC
[15] = test system: Pseudomonas aeruginosa; test: Anti-bacterial activity against Pseudomonas aeruginosa ATCC 27853 assessed as inhibition of bacterial growth; conditions: Pseudomonas aeruginosa, ATCC 27853; read-out: MIC
[16] = test system: Pseudomonas aeruginosa; test: Anti-bacterial activity against Pseudomonas aeruginosa ATCC 15442 assessed as inhibition of bacterial growth; conditions: Pseudomonas aeruginosa, ATCC 15442; read-out: MIC
[17] = test system: Pseudomonas aeruginosa; test: Anti-bacterial activity against Pseudomonas aeruginosa ATCC 9027 assessed as inhibition of bacterial growth
[18] = test system: Pseudomonas aeruginosa; test: Anti-bacterial activity against Pseudomonas aeruginosa CMCC (B) 10104 assessed as inhibition of bacterial growth; conditions: Pseudomonas aeruginosa, CMCC (B) 10104; read-out: MIC
[19] = test system: Acinetobacter baumannii; test: Anti-bacterial activity against Acinetobacter baumannii R674 assessed as inhibition of bacterial growth
[20] = test system: Candida albicans; test: Anti-fungal activity against Candida albicans assessed as inhibition of fungal growth; conditions: Candida albicans; read-out: MIC
[21] = test system: Candida albicans; test: Anti-fungal activity against Candida albicans 90023 assessed as inhibition of fungal growth
[22] = test system: Candida tropicalis; test: Anti-fungal activity against Candida tropicalis assessed as inhibition of fungal growth; conditions: Candida tropicalis; read-out: MIC
[23] = test system: Candida parapsilosis; test: Anti-fungal activity against Candida parapsilosis assessed as inhibition of fungal growth; conditions: Lodderomyces parapsilosis; read-out: MIC

SMILES	MIC [1]	MIC [2]	MIC [3]	MIC [4]	MIC [5]	MIC [6]	MIC [7]	MIC [8]	MIC [9]	MIC [10]	MIC [11]	MIC [12]	MIC [13]	MIC [14]	MIC [15]	MIC [16]	MIC [17]	MIC [18]	MIC [19]	MIC [20]	also measured
CCOC(=O)C1=C(CN2CCN(C(=O)/C(=N/OC)c3csc(N)n3)CC2)NC(=O)NC1c1ccc(OC)c(OC)c1OC (stereo not drawn)	415 µM (≈ 256 µg/mL)	208 µM (≈ 128 µg/mL)	208 µM (≈ 128 µg/mL)	26 µM (≈ 16.1 µg/mL)	208 µM (≈ 128 µg/mL)	208 µM (≈ 128 µg/mL)	208 µM (≈ 128 µg/mL)	415 µM (≈ 256 µg/mL)	104 µM (≈ 64.2 µg/mL)	208 µM (≈ 128 µg/mL)	415 µM (≈ 256 µg/mL)	104 µM (≈ 64.2 µg/mL)	52 µM (≈ 32.1 µg/mL)	52 µM (≈ 32.1 µg/mL)	52 µM (≈ 32.1 µg/mL)	104 µM (≈ 64.2 µg/mL)	104 µM (≈ 64.2 µg/mL)	104 µM (≈ 64.2 µg/mL)	104 µM (≈ 64.2 µg/mL)	398 µM (≈ 246 µg/mL)	MIC [21]: 398 µM (≈ 246 µg/mL); MIC [22]: 398 µM (≈ 246 µg/mL); MIC [23]: 398 µM (≈ 246 µg/mL)
CCCCc1nc(Cl)c(C2NC(=O)NC(CN3CCN(CC(=O)c4ccc(Cl)cc4)CC3)=C2C(=O)OCC)[nH]1 (stereo not drawn)	222 µM (≈ 128 µg/mL)	56 µM (≈ 32.3 µg/mL)	222 µM (≈ 128 µg/mL)	222 µM (≈ 128 µg/mL)	444 µM (≈ 256 µg/mL)	222 µM (≈ 128 µg/mL)	56 µM (≈ 32.3 µg/mL)	56 µM (≈ 32.3 µg/mL)	444 µM (≈ 256 µg/mL)	56 µM (≈ 32.3 µg/mL)	28 µM (≈ 16.2 µg/mL)	222 µM (≈ 128 µg/mL)	111 µM (≈ 64.1 µg/mL)	111 µM (≈ 64.1 µg/mL)	111 µM (≈ 64.1 µg/mL)	111 µM (≈ 64.1 µg/mL)	28 µM (≈ 16.2 µg/mL)	56 µM (≈ 32.3 µg/mL)	111 µM (≈ 64.1 µg/mL)	444 µM (≈ 256 µg/mL)	MIC [21]: 14 µM (≈ 8.09 µg/mL); MIC [22]: 444 µM (≈ 256 µg/mL); MIC [23]: 444 µM (≈ 256 µg/mL)
CCOC(=O)C1=C(CN2CCN(C(=O)/C(=N/OC)c3csc(N)n3)CC2)NC(=O)NC1c1ccc(N(C)C)cc1 (stereo not drawn)	449 µM (≈ 256 µg/mL)	56 µM (≈ 32 µg/mL)	28 µM (≈ 16 µg/mL)	225 µM (≈ 128 µg/mL)	112 µM (≈ 63.9 µg/mL)	112 µM (≈ 63.9 µg/mL)	225 µM (≈ 128 µg/mL)	225 µM (≈ 128 µg/mL)	28 µM (≈ 16 µg/mL)	225 µM (≈ 128 µg/mL)	449 µM (≈ 256 µg/mL)	112 µM (≈ 63.9 µg/mL)	225 µM (≈ 128 µg/mL)	225 µM (≈ 128 µg/mL)	225 µM (≈ 128 µg/mL)	225 µM (≈ 128 µg/mL)	225 µM (≈ 128 µg/mL)	225 µM (≈ 128 µg/mL)	56 µM (≈ 32 µg/mL)	412 µM (≈ 235 µg/mL)	MIC [21]: 52 µM (≈ 29.7 µg/mL); MIC [22]: 412 µM (≈ 235 µg/mL); MIC [23]: 412 µM (≈ 235 µg/mL)
CCCCc1nc(Cl)c(C2NC(=O)NC(CN3CCN(CC(=O)c4ccc(C)cc4)CC3)=C2C(=O)OCC)[nH]1 (stereo not drawn)	230 µM (≈ 128 µg/mL)	115 µM (≈ 64.1 µg/mL)	58 µM (≈ 32.3 µg/mL)	230 µM (≈ 128 µg/mL)	460 µM (≈ 256 µg/mL)	58 µM (≈ 32.3 µg/mL)	58 µM (≈ 32.3 µg/mL)	230 µM (≈ 128 µg/mL)	230 µM (≈ 128 µg/mL)	460 µM (≈ 256 µg/mL)	58 µM (≈ 32.3 µg/mL)	29 µM (≈ 16.2 µg/mL)	115 µM (≈ 64.1 µg/mL)	58 µM (≈ 32.3 µg/mL)	230 µM (≈ 128 µg/mL)	460 µM (≈ 256 µg/mL)	29 µM (≈ 16.2 µg/mL)	230 µM (≈ 128 µg/mL)	115 µM (≈ 64.1 µg/mL)	460 µM (≈ 256 µg/mL)	MIC [21]: 230 µM (≈ 128 µg/mL); MIC [22]: 460 µM (≈ 256 µg/mL); MIC [23]: 460 µM (≈ 256 µg/mL)
CCOC(=O)C1=C(CN2CCN(C(=O)/C(=N/OC)c3csc(N)n3)CC2)NC(=O)NC1c1cccs1 (stereo not drawn)	30 µM (≈ 16 µg/mL)	30 µM (≈ 16 µg/mL)	120 µM (≈ 64 µg/mL)	240 µM (≈ 128 µg/mL)	240 µM (≈ 128 µg/mL)	240 µM (≈ 128 µg/mL)	240 µM (≈ 128 µg/mL)	240 µM (≈ 128 µg/mL)	60 µM (≈ 32 µg/mL)	240 µM (≈ 128 µg/mL)	240 µM (≈ 128 µg/mL)	240 µM (≈ 128 µg/mL)	240 µM (≈ 128 µg/mL)	480 µM (≈ 256 µg/mL)	240 µM (≈ 128 µg/mL)	60 µM (≈ 32 µg/mL)	480 µM (≈ 256 µg/mL)	240 µM (≈ 128 µg/mL)	480 µM (≈ 256 µg/mL)	480 µM (≈ 256 µg/mL)	MIC [21]: 480 µM (≈ 256 µg/mL); MIC [22]: 480 µM (≈ 256 µg/mL); MIC [23]: 480 µM (≈ 256 µg/mL)
CCOC(=O)C1=C(CN2CCNCC2)NC(=O)NC1c1ccc2c(c1)c1ccccc1n2CC (stereo not drawn)	222 µM (≈ 102 µg/mL)	111 µM (≈ 51.2 µg/mL)	28 µM (≈ 12.9 µg/mL)	222 µM (≈ 102 µg/mL)	222 µM (≈ 102 µg/mL)	222 µM (≈ 102 µg/mL)	14 µM (≈ 6.46 µg/mL)	222 µM (≈ 102 µg/mL)	111 µM (≈ 51.2 µg/mL)	222 µM (≈ 102 µg/mL)	111 µM (≈ 51.2 µg/mL)	222 µM (≈ 102 µg/mL)	222 µM (≈ 102 µg/mL)	222 µM (≈ 102 µg/mL)	222 µM (≈ 102 µg/mL)	56 µM (≈ 25.8 µg/mL)	444 µM (≈ 205 µg/mL)	444 µM (≈ 205 µg/mL)	7 µM (≈ 3.23 µg/mL)	470 µM (≈ 217 µg/mL)	MIC [21]: 59 µM (≈ 27.2 µg/mL); MIC [22]: 470 µM (≈ 217 µg/mL); MIC [23]: 470 µM (≈ 217 µg/mL)
